# Results: US20210188843A1, “QUINOLINE COMPOUNDS AND THEIR PREPARATION AND USE AS ANTIMALARIAL AGENTS” (The United States of America,as represented by the …, priority 2018, published 2021)
# How the values were obtained:
# [1] = tested on: Asexual parasites of P. falciparum strain 3D7; experiment: In vitro drug activity on asexual parasites (SYBR Green assay); type: cell-based; details: Plasmodium falciparum; Table 1; P. falciparum 3D7 asexual stage, 72 h; read-out: Asexual EC50
# Method in brief: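 Growth was measured by SYBR Green I fluorescence (excitation 490 nm, emission 520 nm) after freeze-thaw lysis and 30 min staining at room temperature. Parasites (0.5% parasitemia, 2% hematocrit) had been incubated 72 h with compound, DMSO below 0.5%. Conditions were run in duplicate with no-drug and RBC-alone controls.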
# [2] = Microsomal stability (rat); type: in vitro ADME; details: rat microsomes, Table 1, read-out: Microsomal Stability (rat) T1/2
# Solubility pH 7.4 = type: physicochemical; details: aqueous buffer, Table 1
# PAMPA permeability = type: in vitro ADME; details: Table 1
SMILES,EC50 [1],half-life [2],solubility (Solubility pH 7.4),Papp (PAMPA permeability)
"Cn1c(=N)n(-c2cnc(N3CCNCC3)c(C#N)c2)c2c3cc(-c4ccc(Cl)cc4)ccc3ncc21 [Compound 48, 5-(8-(4-chlorophenyl)-2-imino-3-methyl-2,3-dihydro-1H-imidazo[4,5-c]quinolin-1-yl)-2-(piperazin-1-yl)nicotinonitrile]",125 nM,> 30 min,< 1 µg/mL,30.5 ×10⁻⁶ cm/s
"Cn1c(=N)n(-c2ccc(N3CCNCC3)c(C#N)c2)c2c3cc(-c4ccc(Cl)cc4)ccc3ncc21 [Compound 49, 5-(8-(4-chlorophenyl)-2-imino-3-methyl-2,3-dihydro-1H-imidazo[4,5-c]quinolin-1-yl)-2-(piperazin-1-yl)benzonitrile]",58.2 nM,> 30 min,1 µg/mL,4.9 ×10⁻⁶ cm/s
"Cn1c(=N)n(-c2ccc(N3CCOCC3)c(C#N)c2)c2c3cc(-c4ccc(Cl)cc4)ccc3ncc21 [Compound 51, 5-(8-(4-chlorophenyl)-2-imino-3-methyl-2,3-dihydro-1H-imidazo[4,5-c]quinolin-1-yl)-2-morpholinobenzonitrile]",186 nM,> 30 min,< 1 µg/mL,81.1 ×10⁻⁶ cm/s
"Cn1c(=N)n(C2CC(N3CCOCC3)C2)c2c3cc(-c4ccc(Cl)cc4)ccc3ncc21 (stereo not shown) [Compound 58, 8-(4-chlorophenyl)-3-methyl-1-(3-morpholinocyclobutyl)-1,3-dihydro-2H-imidazo[4,5-c]quinolin-2-imine]",2670 nM,> 30 min,> 44 µg/mL,816 ×10⁻⁶ cm/s
"Cn1c(=N)n(-c2ccc(C(=O)NC3CC3)cc2)c2c3cc(-c4ccc(Cl)cc4)ccc3ncc21 [Compound 65, 4-(8-(4-chlorophenyl)-2-imino-3-methyl-2,3-dihydro-1H-imidazo[4,5-c]quinolin-1-yl)-N-cyclopropylbenzamide]",580 nM,> 30 min,6.1 µg/mL,10.2 ×10⁻⁶ cm/s
"CNCc1cccc(-n2c(=N)n(C)c3cnc4ccc(-c5ccc(Cl)cc5)cc4c32)c1 [Compound 67, 1-(3-(8-(4-chlorophenyl)-2-imino-3-methy-2,3-dihydro-H-imidazo[4,5-c]quinolin-1-yl)phenyl)-N-methylmethanamine]",2990 nM,> 30 min,> 42 µg/mL,48.1 ×10⁻⁶ cm/s
"Cn1c(=N)n(-c2ccccc2C#N)c2c3cc(-c4ccc(Cl)cc4)ccc3ncc21 [Compound 68, 2-(8-(4-chlorophenyl)-2-imino-3-methyl-2,3-dihydro-1H-imidazo[4,5-c]quinolin-1-yl)benzonitrile]",1450 nM,> 30 min,> 41 µg/mL,142 ×10⁻⁶ cm/s
"Cn1c(=N)n(-c2cccc(N3CCNCC3)c2)c2c3cc(-c4ccc(Cl)cc4)ccc3ncc21 [Compound 76, 8-(4-chlorophenyl)-3-methyl-1-(3-(piperazin-1-yl)phenyl)-1,3-dihydro-2H-imidazo[4,5-c]quinolin-2-imine]",802 nM,> 30 min,> 46 µg/mL,28.3 ×10⁻⁶ cm/s
"Cn1c(=N)n(-c2cccc(F)c2)c2c3cc(-c4ccc(Cl)cc4)ccc3ncc21 [Compound 78, 8-(4-chlorophenyl)-1-(3-fluorophenyl)-3-methyl-1,3-dihydro-2H-imidazo[4,5-c]quinolin-2-imine]",309 nM,> 30 min,< 1 µg/mL,629 ×10⁻⁶ cm/s
"Cn1c(=N)n(-c2cccc(O)c2)c2c3cc(-c4ccc(Cl)cc4)ccc3ncc21 [Compound 79, 3-(8-(4-chlorophenyl)-2-imino-3-methyl-2,3-dihydro-1H-imidazo[4,5-c]quinolin-1-yl)phenol]",1420 nM,> 30 min,9.7 µg/mL,42 ×10⁻⁶ cm/s
"Cn1c(=N)n(-c2cccc(CN3CCNCC3)c2)c2c3cc(-c4ccc(Cl)cc4)ccc3ncc21 [Compound 85, 8-(4-chlorophenyl)-3-methyl-1-(3-(piperazin-1-ylmethyl)phenyl)-1,3-dihydro-2H-imidazo[4,5-c]quinolin-2-imine]",702 nM,> 30 min,> 48 µg/mL,11.2 ×10⁻⁶ cm/s
"Cc1ccc(C#N)cc1-n1/c(=N/C(=O)OC(C)(C)C)n(C)c2cnc3ccc(-c4ccc(Cl)cc4)cc3c21 [Compound 88, tert-butyl (E)-(8-(4-chlorophenyl)-1-(5-cyano-2-methylphenyl)-3-methyl-1,3-dihydro-2H-imidazo[4,5-c]quinolin-2-ylidene)carbamate]",1620 nM,> 30 min,< 1 µg/mL,128 ×10⁻⁶ cm/s

# Continued, values first:
EC50 [1],half-life [2],solubility (Solubility pH 7.4),Papp (PAMPA permeability),SMILES
83 nM,> 30 min,> 40 µg/mL,435 ×10⁻⁶ cm/s,"Cc1ccc(C#N)cc1-n1c(=N)n(C)c2cnc3ccc(-c4cccc(N)c4)cc3c21 [Compound 38, 3-(8-(3-aminophenyl)-2-imino-3-methyl-2,3-dihydro-1H-imidazo[4,5-c]quinolin-1-yl)-4-methylbenzonitrile]"
54.5 nM,> 30 min,> 42 µg/mL,147 ×10⁻⁶ cm/s,"Cc1ccc(C#N)cc1-n1c(=N)n(C)c2cnc3ccc(-c4ccc(F)c(O)c4)cc3c21 [Compound 39, 3-(8-(4-fluoro-3-hydroxyphenyl)-2-imino-3-methyl-2,3-dihydro-1H-imidazo[4,5-c]quinolin-1-yl)-4-methylbenzonitrile]"
46.2 nM,> 30 min,> 44 µg/mL,988 ×10⁻⁶ cm/s,"COc1ccc(-c2ccc3ncc4c(c3c2)n(-c2cc(C#N)ccc2C)c(=N)n4C)cc1OC [Compound 41, 3-(8-(3,4-dimethoxyphenyl)-2-imino-3-methyl-2,3-dihydro-1H-imidazo[4,5-c]quinolin-1-yl)-4-methylbenzonitrile]"
574 nM,> 30 min,< 1 µg/mL,1650 ×10⁻⁶ cm/s,"Cc1ccc(C#N)cc1-n1c(=N)n(C)c2cnc3ccc(-c4ccc(Cl)c(Cl)c4)cc3c21 [Compound 42, 3-(8-(3,4-dichlorophenyl)-2-imino-3-methyl-2,3-dihydro-1H-imidazo[4,5-c]quinolin-1-yl)-4-methylbenzonitrile]"
118 nM,> 30 min,8.3 µg/mL,837 ×10⁻⁶ cm/s,"Cc1ccc(C#N)cc1-n1c(=N)n(C)c2cnc3ccc(-c4ccc(F)c(F)c4)cc3c21 [Compound 43, 3-(8-(3,4-difluorophenyl)-2-imino-3-methyl-2,3-dihydro-1H-imidazo[4,5-c]quinolin-1-yl)-4-methylbenzonitrile]"
119 nM,> 30 min,> 42 µg/mL,1560 ×10⁻⁶ cm/s,"Cc1ccc(C#N)cc1-n1c(=N)n(C)c2cnc3ccc(-c4ccc(Cl)cn4)cc3c21 [Compound 44, 3-(8-(5-chloropyridin-2-yl)-2-imino-3-methyl-2,3-dihydro-1H-imidazo[4,5-c]quinolin-1-yl)-4-methylbenzonitrile]"
444 nM,> 30 min,> 42 µg/mL,1430 ×10⁻⁶ cm/s,"Cc1ccc(C#N)cc1-n1c(=N)n(C)c2cnc3ccc(-c4ncc(Cl)cn4)cc3c21 [Compound 52, 3-(8-(5-chloropyrimidin-2-yl)-2-imino-3-methyl-2,3-dihydro-1H-imidazo[4,5-c]quinolin-1-yl)-4-methylbenzonitrile]"
120 nM,> 30 min,12.2 µg/mL,850 ×10⁻⁶ cm/s,"COc1ccc(C#N)cc1-n1c(=N)n(C)c2cnc3ccc(-c4ccc(Cl)cc4)cc3c21 [Compound 53, 3-(8-(4-chlorophenyl)-2-imino-3-methyl-2,3-dihydro-1H-imidazo[4,5-c]quinolin-1-yl)-4-methoxybenzonitrile]"
95.1 nM,> 30 min,1.3 µg/mL,466 ×10⁻⁶ cm/s,"Cc1ccc(C#N)cc1-n1/c(=N/C(N)=O)n(C)c2cnc3ccc(-c4ccc(F)cc4)cc3c21 [Compound 55, (E)-1-(1-(5-cyano-2-methylphenyl)-8-(4-fluorophenyl)-3-methyl-1,3-dihydro-2H-imidazo[4,5-c]quinolin-2-ylidene)urea]"
1460 nM,> 30 min,> 44 µg/mL,1.7 ×10⁻⁶ cm/s,"Cc1ccc(C#N)cc1-n1/c(=N/C(=N)N)n(C)c2cnc3ccc(-c4ccc(F)cc4)cc3c21 [Compound 56, (E)-1-(1-(5-cyano-2-methylphenyl)-8-(4-fluorophenyl)-3-methyl-1,3-dihydro-2H-imidazo[4,5-c]quinolin-2-ylidene)guanidine]"
481 nM,> 30 min,> 39 µg/mL,2 ×10⁻⁶ cm/s,"Cc1ccc(C#N)cc1-n1c(=N)n(C)c2cnc3ccc(C4=CCN(C)C4)cc3c21 [Compound 60, 3-(2-imino-3-methyl-8-(1-methyl-2,5-dihydro-1H-pyrrol-3-yl)-2,3-dihydro-1H-imidazo[4,5-c]quinolin-1-yl)-4-methylbenzonitrile]"
696 nM,> 30 min,> 40 µg/mL,7.9 ×10⁻⁶ cm/s,"Cc1ccc(C#N)cc1-n1c(=N)n(C)c2cnc3ccc(-c4ccccc4O)cc3c21 [Compound 86, 3-(8-(2-hydroxyphenyl)-2-imino-3-methyl-2,3-dihydro-1H-imidazo[4,5-c]quinolin-1-yl)-4-methylbenzonitrile]"
57.5 nM,> 30 min,< 1 µg/mL,95.6 ×10⁻⁶ cm/s,"COC(=O)/N=c1\n(C)c2cnc3ccc(-c4ccc(Cl)cc4)cc3c2n1-c1cc(C#N)ccc1C [Compound 87, methyl (E)-(8-(4-chlorophenyl)-1-(5-cyano-2-methylphenyl)-3-methyl-1,3-dihydro-2H-imidazo[4,5-c]quinolin-2-ylidene)carbamate]"
